Source: ChEMBL document CHEMBL1201862, “PubChem BioAssay data set” (2004)
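Each compound was tested at five concentrations against cells in 96-well plates for 48 hours. Abbreviation: GI50, concentration required for 50% inhibition of growth.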 Calls of active or inactive are those of the source. Rule as the data show it: active = GI50 up to about 1.1 µM and inactive = higher.

What was measured:
Assay in all cases: inhibition of tumour cell growth, NCI panel, 48 h
HCT-116 = system: HCT-116
UO-31 = system: UO-31
NCI-H460 = system: NCI-H460
MDA-MB-435 = system: MDA-MB-435
SNB-19 = system: SNB-19
IGROV-1 = system: IGROV-1
SNB-75 = system: SNB-75
SW-620 = system: SW-620
KM12 = system: KM12
T47D = system: T47D
OVCAR-4 = system: OVCAR-4
SN12C = system: SN12C
RXF 393 = system: RXF 393
K562 = system: K562
NCI/ADR-RES = system: NCI/ADR-RES
CCRF-CEM = system: CCRF-CEM
SK-MEL-2 = system: SK-MEL-2
NCI-H23 = system: NCI-H23
OVCAR-3 = system: OVCAR-3
U-251 = system: U-251
PC-3 = system: PC-3
A549 = system: A549
MCF7 = system: MCF7
HCC 2998 = system: HCC 2998
DU-145 = system: DU-145
RPMI-8226 = system: RPMI-8226
COLO 205 = system: COLO 205
SF-539 = system: SF-539
UACC-62 = system: UACC-62
MDA-N = system: MDA-N
HOP-92 = system: HOP-92
LOX IMVI = system: LOX IMVI
HCT-15 = system: HCT-15
MOLT-4 = system: MOLT-4
ACHN = system: ACHN
A498 = system: A498
SR = system: SR
OVCAR-8 = system: OVCAR-8
SF-295 = system: SF-295
M14 = system: M14
OVCAR-5 = system: OVCAR-5
HOP-62 = system: HOP-62
SK-MEL-5 = system: SK-MEL-5
BT-549 = system: BT-549
CAKI-1 = system: CAKI-1
EKVX = system: EKVX
MDA-MB-231 = system: MDA-MB-231
SK-MEL-28 = system: SK-MEL-28
NCI-H226 = system: NCI-H226
786-0 = system: 786-0
UACC-257 = system: UACC-257
HL-60 = system: HL-60
SF-268 = system: SF-268
HT-29 = system: HT-29
Malme-3M = system: Malme-3M
TK-10 = system: TK-10

## CC1(C)OCC2OC3([C@@H]4OC(C)(C)O[C@H]4CO)OC(C)(C)OC3C2O1 (stereo partly specified)
HCT-116
  GI50: > 100 µM (inactive)
UO-31
  GI50: > 100 µM (inactive)
NCI-H460
  GI50: > 100 µM (inactive)
MDA-MB-435
  GI50: > 100 µM (inactive)
SNB-19
  GI50: > 100 µM (inactive)
IGROV-1
  GI50: > 100 µM (inactive)
SNB-75
  GI50: > 100 µM (inactive)
SW-620
  GI50: > 100 µM (inactive)
KM12
  GI50: > 100 µM (inactive)
T47D
  GI50: > 100 µM (inactive)
OVCAR-4
  GI50: > 100 µM (inactive)
SN12C
  GI50: > 100 µM (inactive)
RXF 393
  GI50: > 100 µM (inactive)
K562
  GI50: > 100 µM (inactive)
NCI/ADR-RES
  GI50: > 100 µM (inactive)
CCRF-CEM
  GI50: > 100 µM (inactive)
SK-MEL-2
  GI50: > 100 µM (inactive)
NCI-H23
  GI50: > 100 µM (inactive)
OVCAR-3
  GI50: > 100 µM (inactive)
U-251
  GI50: > 100 µM (inactive)
PC-3
  GI50: > 100 µM (inactive)
A549
  GI50: > 100 µM (inactive)
MCF7
  GI50: > 100 µM (inactive)
HCC 2998
  GI50: > 100 µM (inactive)
DU-145
  GI50: > 100 µM (inactive)
RPMI-8226
  GI50: > 100 µM (inactive)
COLO 205
  GI50: > 100 µM (inactive)
SF-539
  GI50: > 100 µM (inactive)
UACC-62
  GI50: > 100 µM (inactive)
MDA-N
  GI50: > 100 µM (inactive)
HOP-92
  GI50: > 100 µM (inactive)
LOX IMVI
  GI50: > 100 µM (inactive)
HCT-15
  GI50: > 100 µM
MOLT-4
  GI50: > 100 µM (inactive)
ACHN
  GI50: > 100 µM (inactive)
A498
  GI50: > 100 µM (inactive)
SR
  GI50: > 100 µM (inactive)
OVCAR-8
  GI50: > 100 µM (inactive)
SF-295
  GI50: > 100 µM (inactive)
M14
  GI50: > 100 µM (inactive)
OVCAR-5
  GI50: > 100 µM (inactive)
HOP-62
  GI50: > 100 µM (inactive)
SK-MEL-5
  GI50: > 100 µM (inactive)
BT-549
  GI50: > 100 µM (inactive)
CAKI-1
  GI50: > 100 µM (inactive)
EKVX
  GI50: > 100 µM (inactive)
MDA-MB-231
  GI50: > 100 µM (inactive)
SK-MEL-28
  GI50: > 100 µM (inactive)
NCI-H226
  GI50: > 100 µM (inactive)
786-0
  GI50: > 100 µM (inactive)
UACC-257
  GI50: > 100 µM (inactive)

## CCN(CC)CCNc1n[n+]([O-])c2ccccc2[n+]1[O-]
HCT-116
  GI50: 8.22 µM (inactive)
UO-31
  GI50: 17.9 µM (inactive)
MDA-MB-435
  GI50: 22.3 µM (inactive)
SNB-19
  GI50: 12.5 µM (inactive)
IGROV-1
  GI50: 2.43 µM (inactive)
SW-620
  GI50: 11.9 µM (inactive)
KM12
  GI50: 9.98 µM (inactive)
T47D
  GI50: 5.32 µM (inactive)
SN12C
  GI50: 3.56 µM (inactive)
RXF 393
  GI50: 8.63 µM (inactive)
K562
  GI50: 3.25 µM (inactive)
NCI/ADR-RES
  GI50: 18.6 µM (inactive)
CCRF-CEM
  GI50: 3.57 µM (inactive)
HL-60
  GI50: 2.28 µM (inactive)
OVCAR-3
  GI50: 9.02 µM (inactive)
U-251
  GI50: 12.6 µM (inactive)
PC-3
  GI50: 8.53 µM (inactive)
HCC 2998
  GI50: 3.39 µM (inactive)
DU-145
  GI50: 13.9 µM (inactive)
RPMI-8226
  GI50: 3.06 µM (inactive)
COLO 205
  GI50: 5.52 µM (inactive)
SF-539
  GI50: 17.7 µM (inactive)
UACC-62
  GI50: 3.96 µM (inactive)
MDA-N
  GI50: 12.2 µM (inactive)
HCT-15
  GI50: 2 µM
MOLT-4
  GI50: 1.73 µM (inactive)
ACHN
  GI50: 3.79 µM (inactive)
OVCAR-8
  GI50: 8.65 µM (inactive)
SF-268
  GI50: 18.9 µM (inactive)
HT-29
  GI50: 8.93 µM (inactive)
SF-295
  GI50: 4.78 µM (inactive)
Malme-3M
  GI50: 8.38 µM (inactive)
M14
  GI50: 10.1 µM (inactive)
OVCAR-5
  GI50: 14.7 µM (inactive)
SK-MEL-5
  GI50: 1.57 µM (inactive)
BT-549
  GI50: 17.7 µM (inactive)
SK-MEL-28
  GI50: 39.3 µM (inactive)
NCI-H226
  GI50: 9.93 µM (inactive)
786-0
  GI50: 4.74 µM (inactive)
TK-10
  GI50: 8.89 µM (inactive)
